Values of other authors in patent US11116745B2, “Prebiotic formulation” (Deep Cell Industries, Inc., priority 2018, dated 2021).

Columns and labels:
enteric glial cells = conditions: over active enteric glial cells
cannabinoid CB2 receptor = cannabinoid CB2 receptor (Homo sapiens, UniProt P34972)
[1] = not given; remark: listed apart in the source

Sequence of cannabinoid CB2 receptor (P34972 whole entry): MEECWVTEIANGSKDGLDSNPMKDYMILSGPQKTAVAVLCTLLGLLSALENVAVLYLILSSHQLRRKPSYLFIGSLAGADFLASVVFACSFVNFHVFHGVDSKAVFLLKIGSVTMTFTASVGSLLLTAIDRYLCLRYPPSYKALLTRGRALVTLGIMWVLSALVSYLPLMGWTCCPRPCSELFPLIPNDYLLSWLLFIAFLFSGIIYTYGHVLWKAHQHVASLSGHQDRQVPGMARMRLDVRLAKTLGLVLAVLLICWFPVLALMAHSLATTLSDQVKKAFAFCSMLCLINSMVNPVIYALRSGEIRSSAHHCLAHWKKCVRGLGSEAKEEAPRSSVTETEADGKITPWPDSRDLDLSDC

Q: What does the source list for `C=C(C)[C@@H]1CCC(C)=C[C@H]1c1c(O)cc(CCCCC)cc1O` [Cannabidiol]?
A: expression of S100B and iNOS proteins (enteric glial cells): reduce; affinity for the cannabinoid CB2 receptor (cannabinoid CB2 receptor): very low affinity; solubility: low; oral bioavailability (absorption) [1]: 13-19%
